Experimental data from patent US11974551B2, “L-serine compositions, methods and uses for treating neurodegenerative diseases and disorders” (priority 2011, dated 2024).
Entries after “also recorded” stand apart in the source; their conditions may differ.

Legend:
MRC-5 cells [1] = test: Incorporation of 3H-BMAA radiolabel into cell proteins (TCA precipitation, liquid scintillation counting); assay type: cell-based, human; conditions: 3H-BMAA 31.25 nM, 16 hours
Experimental: MRC-5 cells were incubated with ^3H-BMAA (31.25 nM) in HBSS containing 10% FCS. After 2, 4, and 16 hours, cells were washed three times in phosphate buffered saline and lysed by freeze-thawing in Triton X-100. The protein concentration in the lysate was determined using the bicinchoninic acid assay (BCA) (Smith, et al., Anal Biochem 150, 76-85 (1985)) (and radiolabel in the cell lysate quantified by liquid scintillation counting (LSC). Cell proteins were then isolated by trichloroacetic acid (TCA) (5%) precipitation washed three times in TCA (5%) and dissolved in formic acid.
To determine if incorporation of radiolabel into proteins was protein synthesis dependent MRC-5, SH-SY5Y and HUVEC cells were incubated with ^3H-BMAA (31.25 nM) with or without CHX 2 μg/ml for 16 hours. The amount of radiolabel present in cell proteins in the CHM-treated cultures was expressed relative to that of control cultures, which was set at 100%. Parallel cultures of MRC-5 cells were incubated with ^3H-leucine (41 nM) with or without CHX 2 μg/ml under identical culture conditions and processed as before.
To examine the ability of individual amino acids to reduce incorporation or radiolabel into proteins, MRC-5 cells were incubated with ^3H-BMAA (31.25 nM) for 16 hours in the presence of individual amino acids (250 μM) and the radiolabel present in the cell proteins assessed as before. All of the 20 protein amino acids (L-isomers) were examined individually in triplicate cell cultures. […] Incorporation of radiolabel was determined relative to cells incubated in medium containing no serine. MRC-5 cells were then incubated with ^3H-BMAA (31.25 nM) for 16 hours in HBSS alone, HBSS containing all 20 protein amino acids (400 μM) or 19 protein amino acids except L-serine and the amount of radiolabel in cell protein assessed as before.

MRC-5 cells [2] = test: Protein-bound non-labeled BMAA in hydrolysed cell proteins by triple quadrupole LC/MS/MS; assay type: cell-based, human; conditions: BMAA 250-1000 μM with L-serine 250-1000 μM, or CHX
Experimental: After incubation with ^3H-BMAA or cold BMAA, cells were washed three times with PBS, lysed by freeze thawing in Triton-X-100 (0.1%) and cell proteins precipitated in TCA (5%). Protein pellets were washed three times with TCA (5%) and hydrolysed in boiling 6 M HCl at 110° C. for 16 hours as previously described (Mondo, et al., Mar Drugs 10, 509-520 (2012)). Protein pellets were freeze-dried and reconstituted in 20 mM HCl. Particulates were removed by centrifugation through […] membranes and the hydrolysate derivatized in AccQ·Tag (Waters Corporation, Australia). Amino acids were separated on a Waters C-18 column using a method and gradient as described previously (Mondo, et al., Mar Drugs 10, 509-520 (2012)). For recovery of radiolabel in hydrolysed samples, fractions were collected manually every minute for 40 minutes, diluted into 5 ml scintillant (Ultima Gold™ scintillant, Perkin Elmer) and disintegrations per minute (DPM) determined by LSC.
To further confirm that BMAA was present in cell proteins and incorporation was inhibited by L-serine, MRC-5 cells were incubated with a range of concentrations of BMAA (250-1000 μM) or BMAA with L-serine (250-1000 μM) and hydrolysed cell proteins were analyzed by tandem mass spectroscopy on a triple quadrupole LC/MS/MS. […]

MRC-5 cells [3] = test: Autofluorescence imaging of cells; assay type: cell-based, human; conditions: BMAA 300 μM with L-serine 300 μM, 96 hours
Experimental: MRC-5 cells were incubated in DMEM supplemented with 300 μM BMAA in the presence or absence of 300 μM L-serine for 96 hours with daily medium changes. Cellular autofluorescence was visualized using an inverted fluorescent microscope (Olympus IX71) as described previously (Dunlop, et al., Biochem J 410, 131-140 (2008)).

SH-SY5Y cells = test: Annexin V binding (apoptosis) by flow cytometry; assay type: cell-based, human; conditions: 500 μM BMAA, co-incubation with CHX 2 μg/mL or L-serine 50 μM
Experimental: Late-stage apoptosis or necrosis was measured by simultaneous staining with propidium iodide and Annexin V using the BD Pharmingen™ Annexin V—FITC apoptosis detection kit and flow cytometry performed as described previously (Dunlop, et al., Biochem J 435, 207-216 (2010)).

Drosophila fruit flies = test: Fruit fly feeding: mortality after three days; assay type: in vivo, Drosophila melanogaster; conditions: media with 25 mM BMAA and 25 mM L-Serine, three days
Experimental: Preliminary studies show the ability of L-Serine to prevent misincorporation of BMAA into proteins. In a series of feeding experiments, Drosophila fruit flies were fed four different types of media: 1) standard fruit fly media with 0 mM BMAA (control), 2) media enriched with 25 mM L-Serine, 3) media with 25 mM BMAA added, and 4) media with both 25 mM BMAA and 25 mM L-Serine added for three days of feeding. Misincorporation of BMAA into proteins was then analyzed using triple quadrupole LC/MS/MS and Orbital Trap LC/MS/MS.
Equally interesting is the analysis of the protective value of L-Serine on Drosophila dosed with BMAA. Fruit flies fed with BMAA enriched media (third set of blocks) suffered a 40% mortality after three days, while flies fed with Serine plus BMAA (fourth set of blocks) had no mortality (FIG. 8). These flies were rescued by L-Serine.

N[C@@H](CO)C(=O)O [L-serine]
incorporation of BMAA into proteins when L-serine was omitted from the amino acid mixture (MRC-5 cells [1]; 19 protein amino acids 400 μM without L-serine): significantly increased | effect on incorporation of 3H-BMAA into cell proteins (MRC-5 cells [1]; L-serine 0, 50, 100 and 250 μM): inhibited in the presence of L-serine in a concentration-dependent manner; also recorded: inhibition of incorporation of radiolabel into cell proteins | effect on incorporation of non-labeled BMAA into cell proteins (MRC-5 cells [2]): inhibited | effect on BMAA-induced formation of autofluorescent bodies (MRC-5 cells [3]): prevented the formation of autofluorescent bodies | effect on BMAA-induced Annexin V binding / apoptosis (SH-SY5Y cells): abrogated; also recorded: significantly reduced | mortality of flies fed BMAA plus L-Serine (Drosophila fruit flies): blocks BMAA induced mortality | mortality of flies fed BMAA plus L-Serine (Drosophila fruit flies; listed as L-Serine): no mortality
